From ChEMBL document CHEMBL3885861, “Open TG-GATES”

Organism: Rattus norvegicus
Test: Open TG-GATES - Regimen: Single
Format: toxicity, organism-based, Sprague-Dawley
Parameters: regimen Single, gender Male, age 6 weeks
Details: in vivo, iv, route intravenous injection; for IP / K / LDH / Na / PL / RALB / TBIL / TC / TG / TP / gamma-GTP / A/G / ALP / ALT / AST / BUN / CRE / Ca / Cl / DBIL / GLC: tissue Plasma; for APTT / Bas / Eos / Fbg / Hb / Ht / Lym / MCH / MCHC / MCV / Mono / Neu / PT / Plat / RBC / Ret / WBC: tissue Blood; for KIDNEY_L / KIDNEY_R / KIDNEY_TOTAL: tissue Kidney; for LIVER: tissue Liver
[1] = 2 mg/kg, 6 h, dose level Middle
[2] = 2 mg/kg, 9 h, dose level Middle
[3] = 2 mg/kg, 24 h, dose level Middle

C[C@@H]1[C@H](O)[C@@H](C)/C=C/C=C/C=C/C=C/C=C/C=C/C=C/[C@H](O[C@@H]2O[C@H](C)[C@@H](O)[C@H](N)[C@@H]2O)C[C@@H]2O[C@](O)(C[C@@H](O)C[C@@H](O)[C@H](O)CC[C@@H](O)C[C@@H](O)CC(=O)O[C@H]1C)C[C@H](O)[C@H]2C(=O)O [AMPHOTERICIN B] showed an IP [1] of 11.3 mg/dL, a K [1] of 5.5 meq/L and an LDH [1] of 531 IU/L. It also gave a Na [1] of 142.5 meq/L, a PL [1] of 116.2 mg/dL and an RALB [1] of 2.5 g/dL. It also gave a TBIL [1] of 0.0675 mg/dL, a TC [1] of 69 mg/dL and a TG [1] of 41 mg/dL. For the same compound, the TP [1] was 5.5 g/dL, the gamma-GTP [1] was 3.2 IU/L and the TERMINAL_BW [2] was 209.6 g. For the same compound, the APTT [2] was 16.5 s, the Bas [2] was 0% and the Eos [2] was 0.2%. It also gave a Fbg [2] of 288.2 mg/dL, a Hb [2] of 13.5 g/dL and a Ht [2] of 37.5%. It also gave a Lym [2] of 59%, an MCH [2] of 21.2 pg and an MCHC [2] of 36%. The MCV [2] was 59 fL, the Mono [2] was 3.5% and the Neu [2] was 35.8%. For the same compound, the PT [2] was 12.8 s, the Plat [2] was 147.9 x10_4/uL and the RBC [2] was 634.8 x10_4/ul. It also gave a Ret [2] of 7.8%, a WBC [2] of 117.4 x10_2/uL and a KIDNEY_L [2] of 1 g. It also gave a KIDNEY_R [2] of 1 g, a KIDNEY_TOTAL [2] of 2 g and an LIVER [2] of 8.3 g. For the same compound, the A/G [2] was 0.8, the ALP [2] was 1444 IU/L and the ALT [2] was 39.5 IU/L. For the same compound, the AST [2] was 80.8 IU/L, the BUN [2] was 29.8 mg/dL and the CRE [2] was 0.2 mg/dL. For the same compound, the Ca [2] was 10.8 mg/dL, the Cl [2] was 109.2 meq/L and the DBIL [2] was 0.0225 mg/dL. It also gave a GLC [2] of 171.5 mg/dL, an IP [2] of 10.7 mg/dL and a K [2] of 3.8 meq/L. For the same compound, the LDH [2] was 64.8 IU/L, the Na [2] was 145 meq/L and the PL [2] was 139.8 mg/dL. For the same compound, the RALB [2] was 2.5 g/dL, the TBIL [2] was 0.0875 mg/dL and the TC [2] was 83.5 mg/dL. It also gave a TG [2] of 22.8 mg/dL, a TP [2] of 5.6 g/dL and a gamma-GTP [2] of 1.5 IU/L. For the same compound, the TERMINAL_BW [3] was 219.6 g, the APTT [3] was 14.8 s and the Bas [3] was 0%. It also gave an Eos [3] of 1%, a Fbg [3] of 363 mg/dL and a Hb [3] of 13.6 g/dL. It also gave a Ht [3] of 39.2%, a Lym [3] of 74% and an MCH [3] of 20.6 pg. For the same compound, the MCHC [3] was 34.7%, the MCV [3] was 59.2 fL and the Mono [3] was 2.7%. For the same compound, the Neu [3] was 21.7%, the PT [3] was 12.3 s and the Plat [3] was 150.1 x10_4/uL. The RBC [3] was 663 x10_4/ul, the Ret [3] was 6.5% and the WBC [3] was 92.3 x10_2/uL. The KIDNEY_L [3] was 1 g, the KIDNEY_R [3] was 1 g and the KIDNEY_TOTAL [3] was 2 g. The LIVER [3] was 10.1 g, the A/G [3] was 0.8 and the ALP [3] was 1322 IU/L. For the same compound, the ALT [3] was 32.3 IU/L, the AST [3] was 65 IU/L and the BUN [3] was 22.7 mg/dL. It also gave a CRE [3] of 0.2 mg/dL, a Ca [3] of 11 mg/dL and a Cl [3] of 106.7 meq/L. The DBIL [3] was 0.0133 mg/dL, the GLC [3] was 171.3 mg/dL and the IP [3] was 7.6 mg/dL. The K [3] was 4.3 meq/L, the LDH [3] was 57.3 IU/L and the Na [3] was 144 meq/L. It also gave a PL [3] of 148.7 mg/dL, an RALB [3] of 2.6 g/dL and a TBIL [3] of 0.0567 mg/dL. The TC [3] was 91.3 mg/dL, the TG [3] was 64.7 mg/dL and the TP [3] was 5.9 g/dL. The gamma-GTP [3] was 1.3 IU/L, the TERMINAL_BW (4 mg/kg, 24 h, dose level High) was 207 g and the APTT (4 mg/kg, 24 h, dose level High) was 12.7 s. It also gave a Bas (4 mg/kg, 24 h, dose level High) of 0%, an Eos (4 mg/kg, 24 h, dose level High) of 1% and a Fbg (4 mg/kg, 24 h, dose level High) of 536 mg/dL. It also gave a Hb (4 mg/kg, 24 h, dose level High) of 14.3 g/dL, a Ht (4 mg/kg, 24 h, dose level High) of 37.3% and a Lym (4 mg/kg, 24 h, dose level High) of 55%. It also gave an MCH (4 mg/kg, 24 h, dose level High) of 21.1 pg, an MCHC (4 mg/kg, 24 h, dose level High) of 38.3% and an MCV (4 mg/kg, 24 h, dose level High) of 55.1 fL. It also gave a Mono (4 mg/kg, 24 h, dose level High) of 2%, a Neu (4 mg/kg, 24 h, dose level High) of 42% and a PT (4 mg/kg, 24 h, dose level High) of 11.1 s. For the same compound, the Plat (4 mg/kg, 24 h, dose level High) was 105.2 x10_4/uL, the RBC (4 mg/kg, 24 h, dose level High) was 676 x10_4/ul and the Ret (4 mg/kg, 24 h, dose level High) was 6.3%. It also gave a WBC (4 mg/kg, 24 h, dose level High) of 121.2 x10_2/uL, a KIDNEY_L (4 mg/kg, 24 h, dose level High) of 1.2 g and a KIDNEY_R (4 mg/kg, 24 h, dose level High) of 1.1 g. It also gave a KIDNEY_TOTAL (4 mg/kg, 24 h, dose level High) of 2.4 g, an LIVER (4 mg/kg, 24 h, dose level High) of 8.7 g and an A/G (4 mg/kg, 24 h, dose level High) of 0.7. It also gave an ALP (4 mg/kg, 24 h, dose level High) of 1402 IU/L, an ALT (4 mg/kg, 24 h, dose level High) of 227 IU/L and an AST (4 mg/kg, 24 h, dose level High) of 699 IU/L. The BUN (4 mg/kg, 24 h, dose level High) was 53 mg/dL, the CRE (4 mg/kg, 24 h, dose level High) was 0.3 mg/dL and the Ca (4 mg/kg, 24 h, dose level High) was 11 mg/dL. For the same compound, the Cl (4 mg/kg, 24 h, dose level High) was 108 meq/L, the DBIL (4 mg/kg, 24 h, dose level High) was 0.03 mg/dL and the GLC (4 mg/kg, 24 h, dose level High) was 160 mg/dL. It also gave an IP (4 mg/kg, 24 h, dose level High) of 8 mg/dL, a K (4 mg/kg, 24 h, dose level High) of 4.1 meq/L and an LDH (4 mg/kg, 24 h, dose level High) of 117 IU/L. The Na (4 mg/kg, 24 h, dose level High) was 146 meq/L, the PL (4 mg/kg, 24 h, dose level High) was 111 mg/dL and the RALB (4 mg/kg, 24 h, dose level High) was 2.5 g/dL. The TBIL (4 mg/kg, 24 h, dose level High) was 0.1 mg/dL, the TC (4 mg/kg, 24 h, dose level High) was 76 mg/dL and the TG (4 mg/kg, 24 h, dose level High) was 13 mg/dL. The TP (4 mg/kg, 24 h, dose level High) was 6.1 g/dL and the gamma-GTP (4 mg/kg, 24 h, dose level High) was 2 IU/L.
